Data as given in ChEMBL document CHEMBL1201862, “PubChem BioAssay data set” (2004).
Where “and” joins values, the source holds several entries; their conditions need not be identical. Equal values may be shown once.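 A five-concentration, 48-hour dose response in 96-well plates underlies each endpoint, interpolated linearly between surrounding concentrations. Abbreviation: GI50, concentration required for 50% inhibition of growth.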 Calls of active or inactive are those of the source. No stated cut-off is given here; in the data, active = GI50 up to about 1.1 µM and inactive = higher.

Legend:
Assay in all cases: inhibition of tumour cell growth, NCI panel, 48 h
A498 = test system: A498
ACHN = test system: ACHN
HCT-15 = test system: HCT-15
HOP-62 = test system: HOP-62
K562 = test system: K562
MDA-MB-231 = test system: MDA-MB-231
MDA-N = test system: MDA-N
NCI-H23 = test system: NCI-H23
OVCAR-5 = test system: OVCAR-5
SF-268 = test system: SF-268
SF-295 = test system: SF-295
SNB-19 = test system: SNB-19
UO-31 = test system: UO-31
KM12 = test system: KM12
NCI-H460 = test system: NCI-H460
NCI/ADR-RES = test system: NCI/ADR-RES
OVCAR-4 = test system: OVCAR-4
SK-MEL-28 = test system: SK-MEL-28
SNB-75 = test system: SNB-75
U-251 = test system: U-251

Structure (SMILES) | GI50 (A498) | GI50 (ACHN) | GI50 (HCT-15) | GI50 (HOP-62) | GI50 (K562) | GI50 (MDA-MB-231) | GI50 (MDA-N) | GI50 (NCI-H23) | GI50 (OVCAR-5) | GI50 (SF-268) | GI50 (SF-295) | GI50 (SNB-19) | GI50 (UO-31) | GI50 (KM12) | GI50 (NCI-H460) | GI50 (NCI/ADR-RES) | GI50 (OVCAR-4) | GI50 (SK-MEL-28) | GI50 (SNB-75) | GI50 (U-251)
COC(=O)C1=COC(C)C2CN3CCc4c([nH]c5cc(OC)c(OC)cc45)C3CC12 (stereo not drawn) | > 100 µM (inactive) and 87.7 µM (inactive) | 36.3 µM (inactive) and 31.3 µM (inactive) | 43.8 µM and 25.1 µM | 89.7 µM (inactive) | 38.4 µM (inactive) and 37.8 µM (inactive) | > 100 µM (inactive) | 55.7 µM (inactive) | 70.5 µM (inactive) and 37.6 µM (inactive) | > 100 µM (inactive) | > 100 µM (inactive) and 65 µM (inactive) | 59.4 µM (inactive) and 56.1 µM (inactive) | 66.8 µM (inactive) and 75.3 µM (inactive) | 51.1 µM (inactive) and 54.2 µM (inactive) |  |  |  |  |  |  | 
COC(=O)c1ccc(NCc2cc(O)ccc2O)cc1 | 16.8 µM (inactive) | 10.2 µM (inactive) | 10.2 µM | 15.9 µM (inactive) | 4 µM (inactive) |  | 5.31 µM (inactive) | 15.4 µM (inactive) | 15 µM (inactive) | 11.2 µM (inactive) | 18.2 µM (inactive) | 22.7 µM (inactive) | 8 µM (inactive) | 12.4 µM (inactive) | 23.6 µM (inactive) | 3.08 µM (inactive) | 11.5 µM (inactive) | 18.9 µM (inactive) | 15.3 µM (inactive) | 9.79 µM (inactive)
O=C1C=CC(=O)c2c1c1c(c3c2C2c4ccccc4C3c3ccccc32)C2c3ccccc3C1c1ccccc12 | 2.9 µM (inactive) | 1.73 µM (inactive) | 1.54 µM | 19.5 µM (inactive) | 3.69 µM (inactive) |  | 1.55 µM (inactive) | 2.72 µM (inactive) | 6.55 µM (inactive) | 7.64 µM (inactive) | 14.9 µM (inactive) | 16.2 µM (inactive) | 2.04 µM (inactive) | 12.7 µM (inactive) | 13.2 µM (inactive) | 5.04 µM (inactive) | 2.04 µM (inactive) | 1.42 µM (inactive) | 10.2 µM (inactive) | 8.71 µM (inactive)
CC1=C(C(=O)Nc2ccccc2C)C(/C=C/c2ccccc2)C(C(=O)Nc2ccccc2C)=C(C)N1 | 37.8 µM (inactive) | > 100 µM (inactive) | > 100 µM | > 100 µM (inactive) | > 100 µM (inactive) |  |  | > 100 µM (inactive) | > 100 µM (inactive) | > 100 µM (inactive) | > 100 µM (inactive) | > 100 µM (inactive) | 34.8 µM (inactive) | > 100 µM (inactive) | > 100 µM (inactive) |  | 96.4 µM (inactive) | > 100 µM (inactive) | 33.5 µM (inactive) | 85.1 µM (inactive)
Nc1nc(CCC(=O)Nc2cccc(C(F)(F)F)c2)cc(-c2cccc3ccccc23)n1 | > 100 µM (inactive) | > 100 µM (inactive) | > 100 µM | > 100 µM (inactive) | > 100 µM (inactive) |  |  | > 100 µM (inactive) | > 100 µM (inactive) | > 100 µM (inactive) | > 100 µM (inactive) | > 100 µM (inactive) | > 100 µM (inactive) | > 100 µM (inactive) | > 100 µM (inactive) |  | > 100 µM (inactive) | > 100 µM (inactive) | > 100 µM (inactive) | > 100 µM (inactive)
O=c1c2cc(S(=O)(=O)O)ccc2nc(COc2ccc(Oc3ccc(Cl)cc3Cl)cc2)n1-c1ccc(Oc2ccc(Cl)cc2)cc1Cl | 23.3 µM (inactive) | 24.5 µM (inactive) | 19.9 µM | 21.4 µM (inactive) | 28.2 µM (inactive) |  | 23.7 µM (inactive) | 21.7 µM (inactive) | 23.2 µM (inactive) | 12.7 µM (inactive) | 18.3 µM (inactive) | 26.4 µM (inactive) | 13.9 µM (inactive) | 28.5 µM (inactive) | 16.6 µM (inactive) | 18.3 µM (inactive) | 25.2 µM (inactive) |  | 22.6 µM (inactive) | 16 µM (inactive)
O=C(/C=C\c1ccc(Cl)c(Cl)c1)c1ccc(Cl)cc1Cl | > 10 µM (inactive) | 17.3 µM (inactive) | 4.15 µM | > 10 µM (inactive) | 6.11 µM (inactive) |  |  | 0.65 µM (active) | > 10 µM (inactive) | 21.6 µM (inactive) | 18.6 µM (inactive) | 12.4 µM (inactive) | > 10 µM (inactive) | 8.38 µM (inactive) | 23.3 µM (inactive) |  | 24.4 µM (inactive) | > 10 µM (inactive) | 17.1 µM (inactive) | 11.9 µM (inactive)
SCc1ccc(CS)s1 |  |  | > 100 µM | > 100 µM (inactive) | > 100 µM (inactive) | > 100 µM (inactive) | > 100 µM (inactive) | > 100 µM (inactive) | > 100 µM (inactive) | > 100 µM (inactive) | > 100 µM (inactive) | > 100 µM (inactive) | > 100 µM (inactive) | > 100 µM (inactive) | > 100 µM (inactive) | > 100 µM (inactive) | > 100 µM (inactive) | > 100 µM (inactive) | 68.5 µM (inactive) | > 100 µM (inactive)
